In ChEMBL document CHEMBL5376005, “Gut Metabolite Indoxyl Sulfate Has Selective Deleterious and Anticancer Effect on Colon Cancer Cells” (J Med Chem, 2023):
Counter-ions that a name gives are not always drawn. Activity calls are given as the source filed them. No cut-off for these calls is given here.

What was measured:
Cell membrane [1] = experiment: Induction of membrane integrity loss in human HCT-116 cells assessed as LDH release in supernatant at 5 mM incubated for 48 hrs by absorbance based assay relative to control; assay type: subcellular
HT-29 [2] = experiment: Cytotoxicity against human HT-29 cells assessed as reduction in cell viability measured after 48 to 72 hrs by CellTiter-Glo luminescent cell viability assay; assay type: functional, cell-based; conditions: dose 0.01-10 mM, time 48-72 hrs
HCT-116 [3] = experiment: Cytotoxicity against human HCT-116 cells assessed as reduction in cell viability at 0.01 to 10 mM by MTT assay; assay type: functional, cell-based; conditions: dose 0.01-10 mM, time 24-72 hrs, TDE = time-dependent effect
HT-29 [4] = experiment: Induction of morphological changes in human HT-29 cells assessed as loss of adhesion with free floating in medium at 10 mM incubated for 24 to 72 hrs by bright field microscopy analysis; assay type: functional, cell-based; conditions: time 24-72 hrs
HT-29 [5] = experiment: Induction of morphological changes in human HT-29 cells assessed as formation of intracellular vesicles at 1.25 to 10 mM incubated for 24 to 72 hrs by bright field microscopy analysis; assay type: functional, cell-based; conditions: dose 1.25-10 mM, time 24-72 hrs
HCT-116 [6] = experiment: Induction of morphological changes in human HCT-116 cells assessed as loss of adhesion with free floating in medium at 10 mM incubated for 24 to 72 hrs by bright field microscopy analysis; assay type: functional, cell-based; conditions: time 24-72 hrs
HCT-116 [7] = experiment: Induction of morphological changes in human HCT-116 cells assessed as formation of intracellular vesicles at 1.25 to 10 mM incubated for 24 to 72 hrs by bright field microscopy analysis; assay type: functional, cell-based; conditions: dose 1.25-10 mM, time 24-72 hrs
[8] = Toxicity in wild type BALB/c mouse assessed as reduction in body weight at 100 mM, REC measured after 12 weeks; conditions: in vivo, other, 2016 h, 100000 µM
Cell membrane [9] = experiment: Induction of membrane integrity loss in human HCT-116 cells assessed as LDH release in supernatant at 10 mM incubated for 48 hrs by absorbance based assay relative to control
Cell membrane [10] = experiment: Induction of membrane integrity loss in human HT-29 cells assessed as increase in LDH release in supernatant incubated for 48 hrs by absorbance based assay; assay type: subcellular; conditions: dose 1.25-10 mM
HCT-116 [11] = experiment: Induction of apoptosis in human HCT-116 cells assessed as increase in apoptotic cells at 5 mM incubated for 48 hrs by annexin V-FITC/PI staining based flow cytometry analysis (reference value: 3%); assay type: functional
Cell membrane [12] = experiment: Induction of membrane integrity loss in human HT-29 cells assessed as LDH release in supernatant at 5 mM incubated for 48 hrs by absorbance based assay relative to control; assay type: subcellular
[13] = Toxicity in wild type BALB/c mouse assessed as inflammatory symptoms by measuring change in IL-1beta level at 100 mM, ip measured for 0 to 3 months by ELISA; assay type: organism-based; conditions: in vivo, 100000 µM, time 0-3 months
HCT-116 [14] = experiment: Induction of morphological changes in human HCT-116 cells assessed as reduction in cell number at 1.25 to 10 mM incubated for 24 to 72 hrs by bright field microscopy analysis; assay type: functional, cell-based; conditions: dose 1.25-10 mM, time 24-72 hrs
HCT-116 [15] = experiment: Cytotoxicity against human HCT-116 cells assessed as reduction in cell viability measured after 24 to 72 hrs by MTT assay; assay type: functional, cell-based; conditions: dose 0.01-10 mM, time 24-72 hrs
HT-29 [16] = experiment: Induction of morphological changes in human HT-29 cells assessed as detachment from substrate at 1.25 to 10 mM incubated for 24 to 72 hrs by bright field microscopy analysis; assay type: functional, cell-based; conditions: dose 1.25-10 mM, time 24-72 hrs
HT-29 [17] = experiment: Cytotoxicity against human HT-29 cells assessed as cell viability at 10 mM measured after 48 hrs by MTT assay (reference value: 100%); assay type: functional; conditions: HT-29, 48 h, read-out: Activity
HCT-116 [18] = experiment: Cytotoxicity against human HCT-116 cells assessed as cell viability at 10 mM measured after 24 hrs by MTT assay (reference value: 100%); assay type: functional; conditions: HCT-116, 24 h, read-out: Activity
HCT-116 [19] = experiment: Induction of morphological changes in human HCT-116 cells assessed as appearance of rounded morphology at 1.25 to 10 mM incubated for 24 to 72 hrs by bright field microscopy analysis; assay type: functional, cell-based; conditions: dose 1.25-10 mM, time 24-72 hrs
[20] = Toxicity in wild type BALB/c mouse assessed as change in intestinal length at 100 mM, ip measured after 12 weeks; assay type: organism-based, Intestine; conditions: in vivo, 2016 h, 100000 µM
HCT-116 [21] = experiment: Induction of cell cycle arrest in human HCT-116 cells assessed as increase in proportion of cells at G2/M phase incubated for 48 hrs by RNase A/Triton X-100/PI staining based flow cytometry analysis; assay type: functional; conditions: dose 1.25-10 mM
HT-29 [22] = experiment: Induction of ROS production in human HT-29 cells incubated for 48 hrs by DHE staining based analysis; assay type: functional, cell-based
[23] = Toxicity in wild type BALB/c mouse assessed as reduction in body weight at 100 mM, ip measured after 12 weeks; assay type: organism-based; conditions: in vivo, 2016 h, 100000 µM
HCT-116 [24] = experiment: Induction of DNA damage in human HCT-116 cells by comet assay; assay type: functional, cell-based
HCT-116 [25] = experiment: Cytotoxicity against human HCT-116 cells assessed as cell viability at 10 mM measured after 72 hrs by CellTiter-Glo luminescent cell viability assay (reference value: 100%); assay type: functional; conditions: HCT-116, 72 h, read-out: Activity
Cell membrane [26] = experiment: Induction of membrane integrity loss in human HT-29 cells assessed as LDH release in supernatant at 10 mM incubated for 48 hrs by absorbance based assay relative to control; assay type: subcellular
[27] = Toxicity in wild type BALB/c mouse assessed as change in spleen length at 100 mM, ip measured after 12 weeks; assay type: organism-based; conditions: in vivo, 2016 h, 100000 µM
HCT-116 [28] = experiment: Cytotoxicity against human HCT-116 cells assessed as reduction in colony formation pretreated for 48 hrs and further incubated for 10 days with media replacement for every alternate day; assay type: functional, cell-based; conditions: dose 1.25-10 mM
[29] = Toxicity in wild type BALB/c mouse assessed as inflammatory symptoms by measuring change in IL-1beta level at 100 mM, REC measured for 0 to 3 months by ELISA; conditions: in vivo, other, 100000 µM, time 0-3 months
Cell membrane [30] = experiment: Induction of membrane integrity loss in human HCT-116 cells assessed as increase in LDH release in supernatant incubated for 48 hrs by absorbance based assay; assay type: subcellular; conditions: dose 1.25-10 mM
HT-29 [31] = experiment: Induction of cell cycle arrest in human HT-29 cells assessed as increase in proportion of cells at G2/M phase incubated for 48 hrs by RNase A/Triton X-100/PI staining based flow cytometry analysis; assay type: functional; conditions: dose 1.25-10 mM
[32] = Toxicity in wild type BALB/c mouse assessed as inflammatory symptoms by measuring change in fecal consistency at 100 mM, REC measured after 12 weeks; conditions: in vivo, other, 2016 h, 100000 µM
HT-29 [33] = experiment: Cytotoxicity against human HT-29 cells assessed as reduction in cell viability at 0.01 to 10 mM by MTT assay; assay type: functional, cell-based; conditions: dose 0.01-10 mM, time 24-72 hrs, TDE = time-dependent effect
[34] = Toxicity in wild type BALB/c mouse assessed as inflammatory symptoms by measuring change in IL-17 level at 100 mM, ip measured for 0 to 3 months by ELISA; assay type: organism-based; conditions: in vivo, 100000 µM, time 0-3 months
HT-29 [35] = experiment: Induction of apoptosis in human HT-29 cells assessed as increase in apoptotic cells at 10 mM incubated for 48 hrs by annexin V-FITC/PI staining based flow cytometry analysis (reference value: 3%); assay type: functional

For `O=S(=O)(O)Oc1c[nH]c2ccccc12` [INDOXYL SULFATE], which Activity (Cell membrane [1]) is on record?
Its Activity is 80%.

What about the Activity (HT-29 [2]) of the same compound?
The Activity was “Dose-Dependent Effect”.

And the Activity (HCT-116 [3])?
Its Activity is “Tde”.

And the Activity (HT-29 [4])?
Its Activity is “Active”.

What about the Activity (HT-29 [5]) of the same compound?
The Activity was “Active”.

What about the Activity (HCT-116 [6]) of the same compound?
The Activity was “Active”.

What about the Activity (HCT-116 [7]) of the same compound?
The Activity was “Active”.

What about the Activity [8] of the same compound?
Its Activity is “Non-Toxic”.

And the Activity (Cell membrane [9])?
Its Activity is 86%.

What about the Activity (Cell membrane [10]) of the same compound?
Its Activity is “Dose-Dependent Effect”.

What about the Activity (HCT-116 [11]) of the same compound?
The Activity was 9%.

What about the Activity (Cell membrane [12]) of the same compound?
The Activity was 82%.

And the Activity [13]?
Its Activity is “Non-Toxic”.

And the Activity (HCT-116 [14])?
The Activity was “Active”.

And the Activity (HCT-116 [15])?
The Activity was “Dose-Dependent Effect”.

And the Activity (HT-29 [16])?
Its Activity is “Active”.

What about the viability at 10000 µM (HT-29 [17]) of the same compound?
The viability at 10000 µM was 30%.

What about the viability at 10000 µM (HCT-116 [18]) of the same compound?
Its viability at 10000 µM is 30%.

And the Activity (HCT-116 [19])?
The Activity was “Active”.

And the Activity [20]?
The Activity was “Non-Toxic”.

What about the Activity (HCT-116 [21]) of the same compound?
Its Activity is “Dose-Dependent Effect”.

What about the Activity (HT-29 [22]) of the same compound?
The Activity was “inactive”.

What about the Activity [23] of the same compound?
Its Activity is “Non-Toxic”.

What about the Activity (HCT-116 [24]) of the same compound?
Its Activity is “inactive”.

And the viability at 10000 µM (HCT-116 [25])?
Its viability at 10000 µM is 3%.

And the Activity (Cell membrane [26])?
Its Activity is 85%.

What about the Activity [27] of the same compound?
The Activity was “Non-Toxic”.

What about the Activity (HCT-116 [28]) of the same compound?
The Activity was “Dose-Dependent Effect”.

And the Activity [29]?
Its Activity is “Non-Toxic”.

What about the Activity (Cell membrane [30]) of the same compound?
The Activity was “Dose-Dependent Effect”.

What about the Activity (HT-29 [31]) of the same compound?
Its Activity is “Dose-Dependent Effect”.

And the Activity [32]?
The Activity was “Non-Toxic”.

What about the Activity (HT-29 [33]) of the same compound?
The Activity was “Tde”.

And the Activity [34]?
The Activity was “Non-Toxic”.

What about the Activity (HT-29 [35]) of the same compound?
Its Activity is 12%.
